Like-named read-outs stand apart in the source and are kept apart here.
Assays:
Type in all cases: cell-based, Escherichia coli
[1] = test system: wild-type E. coli K-12 str. BW25113; assay: microbe, parasite or virus in culture; details: technical duplicate; for MIC: Escherichia coli, BW25113
Description: (§1) Single colonies were used to inoculate 3 mL of LB followed by incubation at 37° C. for 18 h with aeration at 220 rpm. The bacterial cells were harvested by centrifugation and resuspended in phosphate buffered saline (PBS) ([pH 7.4], 137 mM NaCl (Bioshop), 2.7 mM KCl (Bioshop), 10 mM Na2PO4 (Bioshop) and 1.8 mM K2PO4) to an OD600 nm˜1.0, followed by 1/2000 dilution into MHB II.
(§2) To a 384-well microtiter plate (Corning, untreated polystyrene), 500 nL of compound was dispensed, in duplicate, and serially titrated 2-fold using an Echo 550 acoustic liquid dispenser (Labcyte Inc.). […] As a solvent control, 500 nL of DMSO was applied to wells that contained no compound. Using a multichannel pipette, 50 μL of the prepared bacterial inoculum was applied to each well. To enable background correction post-incubation, the OD600 nm was measured (Biotek Synergy Neo2 microplate reader) prior to incubation. The plates were incubated at 37° C. with aeration at 900 rpm for 18 h. The plates were equilibrated to room temperature and the OD600 nm measured using a BioTek Synergy Neo2 microplate reader. Data was analyzed in both Prism (GraphPad, Version 9.2.0) and Microsoft Excel (Version 16.53). Raw data were input into Microsoft Excel and the pre-incubation OD600 nm measurements were subtracted from the post-incubation OD600 nm measurements. These corrected measurements were input into Prism 9 as a grouped analysis. […] All other MIC values were adjusted accordingly and visualized using the single-color scale grouped heat map function. Identification of compound chemical properties was achieved using DataWarrior (Version 5.5.0). Using PubChem, the SMILES chemical notation for each compound was obtained and compiled in Microsoft Excel. The resulting spreadsheet was input into DataWarrior and properties were calculated from the compound chemical structures.

[2] = test system: E. coli ΔtolC; assay: microbe, parasite or virus in culture; details: for MIC: Escherichia coli, 18 h, read-out: Minimum Inhibitory Concentration, ΔtolC; for Minimum inhibitory concentration (MIC), ΔtolC: Table 10, without pore; for Minimum inhibitory concentration (MIC), ΔtolC / Minimum Inhibitory Concentration, ΔtolC: technical duplicate; for Minimum Inhibitory Concentration, ΔtolC: Table 13A, non-porinated
Description: as §1, §2

[3] = test system: E. coli EKO-35; assay: microbe, parasite or virus in culture; details: for Fold change of MICs: EKO-35 compared to EKO-35 (reference); for MIC: Escherichia coli, EKO35; for MIC / Minimum inhibitory concentration (MIC), EKO-35 / Minimum Inhibitory Concentration, EKO-35: technical duplicate
Description: as §1, §2

[4] = test system: EKO-35 araC::acrB; assay: MIC susceptibility profiling, efflux platform; details: for Fold change of MICs: EKO-35 araC::acrB compared to EKO-35
Summary of the method: (§3)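 Strains are grown overnight in LB at 37 °C, adjusted to OD600 ~1.0 in PBS (pH 7.4) and diluted 1/2000 into MHB II. They are incubated with twofold compound dilutions for 18 h at 37 °C. MIC comes from background-subtracted OD600.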

[5] = test system: EKO-35 araC::mdtEF; assay: MIC susceptibility profiling, efflux platform; details: for Fold change of MICs: EKO-35 araC::mdtEF compared to EKO-35; for MIC: Escherichia coli, read-out: Minimum Inhibitory Concentration, EKO-35 araC::mdtEF; for MIC / Minimum Inhibitory Concentration, EKO-35 araC::mdtEF: Table 13A, non-porinated, technical duplicate
Summary of the method: as §3

[6] = test system: EKO-35-Pore; assay: MIC susceptibility profiling, porinated strain; details: for Fold changes of MICs: EKO-35-Pore compared to EKO-35-Pore (reference); for MIC: Escherichia coli; for MIC / Minimum inhibitory concentration (MIC), Pore EKO-35 / Minimum inhibitory concentration, EKO-35-Pore: technical duplicate
Description: (§4) For genomic integration of the pore, the fhuA ΔC/Δ4L gene and the adjacent gentamicin resistance cassette were amplified using a high-fidelity polymerase and the fhuA_40_Up/gImS_3680_Low primers (Table 4). Integration of the pore gene was performed as described above. The pore gene was introduced into the intergenic region between the glmS and pstS genes, with gene expression under the control of a constitutive promoter (Kearse, M. et al., 2012). Genomic integrations were verified using PCR (Primers: pstS_520_Up/glmS_3680_Low, Table 4). Successful integrations were transformed with pCP20 to remove the gentamicin resistance cassette as previously described. Activity of the pore was confirmed through susceptibility testing with the large antibiotic vancomycin prior to phenotypic profiling and further susceptibility testing.
as §1, §2

[7] = test system: ΔtolC-Pore; assay: microbe, parasite or virus in culture; details: for MIC: Escherichia coli, 18 h, read-out: Minimum inhibitory concentration, ΔtolC-Pore; for Minimum inhibitory concentration (MIC), Pore ΔtolC: Table 10, with pore; for Minimum inhibitory concentration (MIC), Pore ΔtolC / Minimum inhibitory concentration, ΔtolC-Pore: technical duplicate; for Minimum inhibitory concentration, ΔtolC-Pore: Table 14A, porinated
Description: as §4, §1, §2

[8] = test system: wild-type (WT) K-12-Pore; assay: microbe, parasite or virus in culture; details: technical duplicate; for MIC: Escherichia coli
Description: as §4, §1, §2

[9] = Table 10, without pore, read-out: Minimum inhibitory concentration (MIC), K-12
[10] = Table 13A, non-porinated, read-out: Minimum Inhibitory Concentration, K-12
[11] = Table 10, without pore, read-out: Minimum inhibitory concentration (MIC), EKO-35
[12] = Table 13A, non-porinated, read-out: Minimum Inhibitory Concentration, EKO-35
[13] = Table 10, with pore, read-out: Minimum inhibitory concentration (MIC), Pore EKO-35
[14] = Table 14A, porinated, read-out: Minimum inhibitory concentration, EKO-35-Pore
[15] = Table 10, with pore, read-out: Minimum inhibitory concentration (MIC), Pore K-12
[16] = Table 14A, porinated, read-out: Minimum inhibitory concentration, K-12 (WT)-Pore
[17] = Table 13A, non-porinated, technical duplicate

Compound	MIC [1, 9] [µg/mL]	MIC [1, 10] [µg/mL]	MIC [2] [µg/mL]	Minimum inhibitory concentration (MIC), ΔtolC [2] [µg/mL]	Fold change of MICs [3] [fold]	MIC [3, 11] [µg/mL]	MIC [3, 12] [µg/mL]	Fold change of MICs [4] [fold]	Fold change of MICs [5] [fold]	MIC [5] [µg/mL]	Fold changes of MICs [6] [fold]	MIC [6, 13] [µg/mL]	MIC [6, 14] [µg/mL]	MIC [7] [µg/mL]	Minimum inhibitory concentration (MIC), Pore ΔtolC [7] [µg/mL]	MIC [8, 15] [µg/mL]	MIC [8, 16] [µg/mL]	Minimum inhibitory concentration (MIC), K-12 ([1]; Table 10, without pore) [µg/mL]	Minimum Inhibitory Concentration, K-12 ([1]; Table 13A, non-porinated) [µg/mL]	Minimum Inhibitory Concentration, ΔtolC [2] [µg/mL]	other results
CCn1cc(C(=O)O)c(=O)c2ccc(C)nc21 [nalidixic acid]	10	10	1.25	1.25	1	1.25	1.25	8	1	1.25	1	1.25	1.25	1.25	1.25	5	5	–	–	–	MIC ([4]; Escherichia coli, Table 13A, non-porinated, technical duplicate, read-out: Minimum Inhibitory Concentration, EKO-35 araC::acrB): 10 µg/mL
C[n+]1c2cc(N)ccc2cc2ccc(N)cc21.[Cl-] [acriflavine]	–	–	–	3.125	1	–	–	32	2	–	1	–	–	–	3.125	–	–	50	50	3.125	susceptibility of EKO-35 compared with the ΔtolC mutant [3]: more susceptible; Minimum inhibitory concentration (MIC), EKO-35 ([3]; Table 10, without pore): 0.098 µg/mL; Minimum Inhibitory Concentration, EKO-35 ([3]; Table 13A, non-porinated): 0.098 µg/mL; Minimum Inhibitory Concentration, EKO-35 araC::acrB [4, 17]: 3.125 µg/mL; restoration of resistance to wild-type levels by acrB alone ([4]; overexpression of acrB in EKO-35): did not restore resistance to wild-type levels; Minimum Inhibitory Concentration, EKO-35 araC::mdtEF [5]: 0.195 µg/mL; Minimum inhibitory concentration (MIC), Pore EKO-35 ([6]; Table 10, with pore): 0.098 µg/mL; Minimum inhibitory concentration, EKO-35-Pore ([6]; Table 14A, porinated): 0.098 µg/mL; Minimum inhibitory concentration, ΔtolC-Pore [7]: 3.125 µg/mL; Minimum inhibitory concentration (MIC), Pore K-12 ([8]; Table 10, with pore): 50 µg/mL; Minimum inhibitory concentration, K-12 (WT)-Pore ([8]; Table 14A, porinated): 50 µg/mL
O=C(Nc1cccc(Oc2c(F)c(F)c(F)c(F)c2F)c1)c1ccccc1 [compound 1]	–	–	–	5	1	–	–	1	1	–	1	–	–	–	10	–	–	320	320	5	Minimum inhibitory concentration (MIC), EKO-35 ([3]; Table 10, without pore): 320 µg/mL; Minimum Inhibitory Concentration, EKO-35 ([3]; Table 13A, non-porinated): 320 µg/mL; Minimum Inhibitory Concentration, EKO-35 araC::acrB [4, 17]: 320 µg/mL; Minimum Inhibitory Concentration, EKO-35 araC::mdtEF [5]: 320 µg/mL; Minimum inhibitory concentration (MIC), Pore EKO-35 ([6]; Table 10, with pore): 320 µg/mL; Minimum inhibitory concentration, EKO-35-Pore ([6]; Table 14A, porinated): 320 µg/mL; Minimum inhibitory concentration, ΔtolC-Pore [7]: 10 µg/mL; Minimum inhibitory concentration (MIC), Pore K-12 ([8]; Table 10, with pore): 320 µg/mL; Minimum inhibitory concentration, K-12 (WT)-Pore ([8]; Table 14A, porinated): 320 µg/mL
O=c1oc(-c2ccccc2Cl)nn1-c1ccc(C(F)(F)F)cn1 [compound 5]	–	–	–	10	1	–	–	16	16	–	1	–	–	–	2.5	–	–	320	320	10	Minimum inhibitory concentration (MIC), EKO-35 ([3]; Table 10, without pore): 20 µg/mL; Minimum Inhibitory Concentration, EKO-35 ([3]; Table 13A, non-porinated): 20 µg/mL; susceptibility of EKO-35 to the compound ([3]; synthetic efflux substrates of FIG. 12): susceptible; Minimum Inhibitory Concentration, EKO-35 araC::acrB [4, 17]: 320 µg/mL; Minimum Inhibitory Concentration, EKO-35 araC::mdtEF [5]: 320 µg/mL; Minimum inhibitory concentration (MIC), Pore EKO-35 ([6]; Table 10, with pore): 20 µg/mL; Minimum inhibitory concentration, EKO-35-Pore ([6]; Table 14A, porinated): 20 µg/mL; Minimum inhibitory concentration, ΔtolC-Pore [7]: 2.5 µg/mL; Minimum inhibitory concentration (MIC), Pore K-12 ([8]; Table 10, with pore): 320 µg/mL; Minimum inhibitory concentration, K-12 (WT)-Pore ([8]; Table 14A, porinated): 320 µg/mL
CN(C)[C@@H]1C(O)=C(C(N)=O)C(=O)[C@@]2(O)C(O)=C3C(=O)c4c(O)cccc4[C@@](C)(O)[C@H]3C[C@@H]12 [tetracycline]	1.56	1.56	0.391	0.391	1	0.195	0.195	4	1	0.195	1	0.195	0.195	0.391	0.391	0.781	0.781	–	–	–	–
CCn1cc(C(=O)O)c(=O)c2cc(F)c(N3CCNCC3)cc21 [norfloxacin]	0.078	0.078	0.02	0.020	1	0.02	0.02	4	1	0.02	1	0.01	0.01	0.01	0.010	0.078	0.078	–	–	–	–

Source: patent publication US20230407243A1, “GENETIC PLATFORM TO INVESTIGATE THE FUNCTIONS OF BACTERIAL DRUG EFFLUX PUMPS” (priority 2022, published 2023)
